Measurements as given in patent publication US8569229B2, “Compositions and methods which modulate G-protein signaling for the treatment of inflammatory disorders such as asthma and allergic conjunctivitis” (The Children's Hospital of Philadelphia, priority 2008, dated 2013).
“Also recorded” adds a separate entry of the source.

Key:
[1] = test system: CREB/ATF1; experiment: Immunoblot analysis of CREB/ATF1 phosphorylation in ASM cells; type: cell-based, human; details: PGE2 100 nM
Description: (§1) Detection of PDE4D5 mRNA transcripts: Total RNA was extracted from the cultured ASM cells using the TRIzol method (Invitrogen), and cDNAs were isolated by RT-PCR using the SuperScript First Strand Synthesis System kit from Invitrogen, with the following oligonucleotide primer sets (Integrated DNA Technologies): for PDE4D5, 5′-[…]-3′ (forward; SEQ ID NO: 2) and 5′-[…]-3′ (reverse; SEQ ID NO: 3); and for β-actin, 5′-[…]-3′ (forward; SEQ ID NO: 4) and 5′-[…]-3′ (reverse; SEQ ID NO: 5). The reaction volume was 20 μl and cycling conditions used were 35 cycles of 30 sec denaturation at 95° C., followed by 30 sec annealing at 60° C. and elongation at 72° C. for 30 sec. Ex-Tag (Takara Biotechnology) was used as DNA polymerase. […] Following protein extraction and the addition of gel-loading buffer, the extracts were loaded on a 10% SDS-PAGE gel for immunoblotting after transfer to a PVDF membrane. The membranes were then incubated overnight with monoclonal mouse anti-human primary antibodies directed against phospho-CREB and -ATF1, phospho-ERK1/2, or α-actin, and levels were detected by ECL after a 1-hr incubation with a 1:2,000 dilution of HRP-conjugated rabbit anti-mouse secondary antibody, followed by exposure to autoradiography film. The protein band intensities were quantified by densitometry. siRNA-mediated knockdown of PKA: ASM cells were seeded into 6-well plates and, at ˜40% confluency, the medium was replaced with the reduced serum-containing medium, Opti-MEM (Invitrogen). The cells were then transfected twice during a 24-hr interval with two pools of three siRNA duplexes, each pool targeted against the human PKAα or PKAγ catalytic subunits (Santa Cruz Biotechnology; sc-36240 and sc-36236, respectively), or with a non-targeted control (scrambled) siRNA duplex, using Oligofectamine (Invitrogen) as the transfection agent. The pools of siRNAs were applied to each well at a final concentration of 100 nM for each siRNA preparation. […] Transfection of ASM cells with adeno-βARK-ct: Adenovirus (adeno)-βARK-ct, an adenovirus vector encoding the βARK1 carboxyl-terminal domain which blocks Gβγ signaling (25,26), and adeno-β-gal, an adenovirus vector expressing lacZ as a negative control, were constructed using the AdenoX adenovirus construction kit (BD-Clontech). Recombinant plaques were isolated and propagated in HEK293 cells (Invitrogen), with viral purification using the cesium chloride gradient method, and viral titer detected by plaque assay. The ASM cells were transfected with either of the adenoviral vectors at a multiplicity of infection (MOI) of 100, and experiments were conducted at 24 hr following adenoviral tranfections. Pharmacodynamic studies of constrictor and relaxation responsiveness in rabbit ASM tissues: Following initial sedation and subsequent general anesthesia with intramuscular injections of xylazine (10 mg/kg) and ketamine (50 mg/kg), respectively, rabbits were sacrificed with an intravenously administered overdose of sodium pentobarbital (100 mg/kg). As described previously (16), the tracheae were excised via open thoracotomy, the loose connective tissue and epithelium were scraped and removed, and the tracheae were divided into 8 ring segments, each of 6-8 mm in length. […] After these incubations, the tissues were placed in organ baths containing modified Krebs-Ringer solution aerated with 5% CO2 in oxygen (pH of 7.35-7.40), and attached to force transducers to continuously monitor isometric tension. […] The constrictor and relaxation dose-response curves were analyzed with respect to each tissue's maximal isometric contractile force (Tmax) to ACh and maximal relaxation response (Rmax) to isoproterenol from the initial level of active cholinergic contraction. Statistical analyses: Results are expressed as mean±SE values. Comparisons between groups were made using the Student's t-test (two-tailed) or ANOVA with Tukey's post-test analysis, where appropriate.

[2] = test system: ERK1/2; experiment: Immunoblot analysis of ERK1/2 phosphorylation in ASM cells; type: cell-based, human
Description: as §1

[3] = test system: rabbit ASM tissues; experiment: Constrictor responsiveness to acetylcholine (ACh) in isolated rabbit ASM tissues, isometric tension in organ bath; details: for effect of pretreatment on PGE2-induced increase in constrictor responsiveness to ACh: PGE2 100 nM x 24 hr; for effect of pretreatment on salmeterol-induced increase in constrictor responsiveness to ACh: salmeterol 10 μM x 24 hr; for effect of the agent alone on constrictor responses to ACh: vehicle-exposed control tissues
Description: as §1

[4] = test system: rabbit ASM tissues; experiment: Relaxation responsiveness to isoproterenol in isolated rabbit ASM tissues half-maximally contracted with ACh; details: for effect of pretreatment on PGE2-induced impaired relaxation to isoproterenol: PGE2 100 nM x 24 hr; for effect of pretreatment on salmeterol-induced impaired relaxation to isoproterenol: salmeterol 10 μM x 24 hr
Description: as §1

[5] = test system: human ASM cells; experiment: Assay of cAMP PDE activity in ASM cell lysates; type: cell-based; details: for effect of pretreatment on PGE2- and forskolin-induced increases in PDE activity: PGE2 or forskolin x 24 hr (100 μM in text, 100 nM in legends); for effect of pretreatment on salmeterol- and isoproterenol-induced increase in PDE activity: salmeterol or isoproterenol 10 μM x 24 hr
[6] = test system: PDE4D5 mRNA; experiment: Detection of PDE4D5 mRNA transcripts by RT-PCR in ASM cells; type: cell-based, human
Description: as §1

[7] = test system: human ASM cells; experiment: Assay of cAMP PDE activity in ASM cell lysates; type: cell-based
Method: Assay of cAMP PDE activity: Levels of cAMP PDE activity were assayed in ASM cell lysates using a colorimetric, non-radioactive enzymatic assay kit from Biomol, as per the manufacture's protocol. PDE activity was determined following exposure of ASM cells for 24 hr to either vehicle alone (control), PGE2 (100 μM), or forskolin (100 μM) in the absence and presence of pretreatment with rolipram (10 μM), cycloheximide (100 μM), actinomycin D (4 μM), or H89 (10 μM).
In each case, the measured levels of PDE activity were standardized to the protein content in the cell extracts.

[8] = test system: human ASM cells; experiment: Assay of cAMP accumulation in cultured human ASM cells; type: cell-based
Description: Animals: Adult New Zealand White rabbits were used in this study, which was approved by the Biosafety and Animal Research Committee of the Joseph Stokes Research Institute at Children's Hospital of Philadelphia. The animals had no signs of respiratory disease for several weeks before the study, and their care and use were in accordance with the “Guide for the Care and Use of Laboratory Animals” prepared by the Institute of Laboratory Animal Resources, National Research Council. Culture and treatment of ASM cells: The human ASM cells were grown in SmBm media supplemented with 10% FBS (BioWhittaker) and maintained throughout in a humidified incubator containing 5% CO2 in air at 37° C. The experimental protocols involved growing the cells to ˜95% confluence in the above medium. […] Assay of cAMP accumulation: In initial studies, intracellular cAMP levels were determined in near confluent ASM cell cultures at varying times following treatment of ASM cells with varying concentrations of isoproterenol (0.1 to 100 μM). […]
Thereafter, in the continued presence of these treatments, cells were exposed for 5 min to isoproterenol (10 μM) at 37° C., and intracellular cAMP concentrations were determined per manufacturer's protocols using a direct cAMP Enzyme Immunoassay Kit (R&D Systems, Minneapolis, Minn.). In both cases, the cAMP measurements were expressed in units of picomoles/milligram protein.

[9] = forskolin 100 μM x 24 hr, data not shown
[10] = tissues exposed 24 hr to the agent

O=S(=O)(NCCNC/C=C/c1ccc(Br)cc1)c1cccc2cnccc12 [H89]
effect on PGE2-induced phosphorylation of CREB/ATF1 ([1]; 30 min): abrogated; also recorded: ablated | effect on PGE2-induced phosphorylation of ERK1/2 ([2]; PGE2 100 nM, 30 min): abrogated; also recorded: ablated | effect of pretreatment on PGE2-induced increase in constrictor responsiveness to ACh [3]: abrogated | effect of pretreatment on salmeterol-induced increase in constrictor responsiveness to ACh [3]: completely abrogated; also recorded: prevents | effect of the agent alone on constrictor responses to ACh [3]: no significant effect; also recorded: did not exhibit any significant changes | effect of pretreatment on PGE2-induced impaired relaxation to isoproterenol [4]: abrogated | effect of pretreatment on salmeterol-induced impaired relaxation to isoproterenol [4]: completely ablated; also recorded: prevents | effect of the agent alone on relaxation responses to isoproterenol ([4]; vehicle-exposed control tissues): no significant effect; also recorded: did not exhibit any significant changes | effect of pretreatment on PGE2- and forskolin-induced increases in PDE activity [5]: abrogated; also recorded: ablated | effect of pretreatment on salmeterol- and isoproterenol-induced increase in PDE activity [5]: prevented; also recorded: ablated | effect of pretreatment on PGE2-induced upregulated PDE4D5 mRNA expression ([6]; PGE2 100 nM, 6 hr): largely prevented; also recorded: ablated | effect of pretreatment on β2AR agonist (isoproterenol)-induced upregulated PDE4D5 mRNA expression ([6]; isoproterenol 10 μM, 6 hr): largely prevented; also recorded: ablated | effect of the agent alone on basal PDE activity ([7]; no cAMP-elevating agent): no significant change; also recorded: neither H89 nor U0126 alone had a significant effect

COc1ccc(C2CNC(=O)C2)cc1OC1CCCC1 (stereo not drawn) [rolipram]
isoproterenol-induced cAMP response in PGE2-exposed cells pretreated with the agent ([8]; PGE2 100 nM x 24 hr, rolipram 10 μM): preserved; also recorded: unaltered | isoproterenol-induced cAMP accumulation in cells pretreated with the agent ([8]; rolipram 10 μM, isoproterenol 1.0 μM, 5 min): increased isoproterenol-induced cAMP accumulation; also recorded: slightly increased | isoproterenol-induced cAMP response in salmeterol-exposed cells co-treated with the agent ([8]; salmeterol 10 μM x 24 hr, rolipram 10 μM): largely preserved; also recorded: unaltered | effect of pretreatment on PGE2-induced increase in constrictor responsiveness to ACh [3]: completely abrogated; also recorded: prevents | effect of pretreatment on forskolin-induced increase in constrictor responsiveness to ACh [3, 9]: completely abrogated | effect of pretreatment on salmeterol-induced increase in constrictor responsiveness to ACh [3]: completely abrogated; also recorded: prevents | effect of the agent alone on constrictor responses to ACh [3]: only modestly decreased constrictor responses; also recorded: did not exhibit any significant changes; also recorded: no significant effect | effect of pretreatment on PGE2-induced impaired relaxation to isoproterenol [4]: completely ablated; also recorded: prevents | effect of pretreatment on forskolin-induced impaired relaxation to isoproterenol [4, 9]: completely abrogated | effect of pretreatment on salmeterol-induced impaired relaxation to isoproterenol [4]: completely ablated; also recorded: prevents | effect of pretreatment on PGE2- and forskolin-induced increases in PDE activity [5]: completely abrogated; also recorded: ablated | effect of pretreatment on salmeterol- and isoproterenol-induced increase in PDE activity [5]: completely abrogated; also recorded: ablated

OCc1cc(C(O)CNCCCCCCOCCCCc2ccccc2)ccc1O (stereo not drawn) [salmeterol]
phosphorylation of CREB and ATF1 in cells treated with the agent ([1]; isoproterenol 10 μM): Qualitatively similar temporal changes | time of peak ERK1/2 phosphorylation ([2]; PGE2 100 nM, isoproterenol or salmeterol 10 μM): 20 min | ERK1/2 phosphorylation in cells treated with the agent ([2]; PGE2 or forskolin 100 nM, isoproterenol or salmeterol 10 μM): increased phosphorylation of ERK1/2; also recorded: enhanced ERK1/2 phosphorylation | isoproterenol-induced cAMP accumulation after 24 hr exposure to the agent ([8]; isoproterenol 1.0 μM, 5 min, PGE2 100 nM or salmeterol 10 μM x 24 hr, no rolipram): significantly reduced cAMP responses; also recorded: markedly attenuated | constrictor responsiveness to ACh relative to vehicle-treated controls [3, 10]: significantly increased constrictor responses | maximal relaxation (Rmax) response to isoproterenol ([4]; mean±SE, tissues exposed 24 hr to the agent (PGE2 100 nM; salmeterol 10 μM)): 33.39±5.1% | relaxation responsiveness to isoproterenol relative to vehicle-treated controls [4, 10]: impaired relaxation responses | time of peak PDE4D5 mRNA induction ([6]; PGE2 100 nM, salmeterol or isoproterenol 10 μM): 6 h | peak PDE4D5 mRNA expression, fold above unstimulated cells ([6]; densitometric analysis, 3 experiments, PGE2 100 nM, salmeterol or isoproterenol 10 μM): 7.3 fold | cAMP PDE (PDE4) activity relative to vehicle-treated control cells ([7]; cells exposed 24 hr to the agent): significantly increased | PDE activity, fold above control ([7]; cells incubated 24 hr with the agent (PGE2 or forskolin 100 μM; salmeterol or isoproterenol 10 μM)): ~2 fold
